Data as given in ChEMBL document CHEMBL2440005, “Discovery and structure-activity relationships of 6-(benzoylamino)benzoxaboroles as orally active anti-inflammatory agents” (Bioorg Med Chem Lett, 2013).
Calls of active or inactive are those of the source. No cut-off for these calls is given here.

Legend:
[1] = molecular target: Prostaglandin G/H synthase 2 (Homo sapiens) (UniProt P35354); test: Inhibition of COX2 (unknown origin) up to 25 uM
Homo sapiens = organism: Homo sapiens; test: Inhibition of PKA (unknown origin) at 30 uM
[2] = molecular target: Protein kinase C beta type (Homo sapiens) (UniProt P05771); test: Inhibition of PKCbeta (unknown origin) at 30 uM
[3] = molecular target: Tyrosine-protein kinase JAK2 (Homo sapiens) (UniProt O60674); test: Inhibition of JAK2 (unknown origin) at 30 uM
[4] = molecular target: Tyrosine-protein kinase JAK3 (Homo sapiens) (UniProt P52333); test: Inhibition of JAK3 (unknown origin) at 30 uM
[5] = molecular target: Tyrosine-protein kinase JAK1 (Homo sapiens) (UniProt P23458); test: Inhibition of JAK1 (unknown origin) at 30 uM
[6] = molecular target: Mitogen-activated protein kinase 10 (Homo sapiens) (UniProt P53779); test: Inhibition of JNK3 (unknown origin) at 30 uM
[7] = molecular target: Phosphatidylinositol 4,5-bisphosphate 3-kinase catalytic subunit delta isoform (Homo sapiens) (UniProt O00329); test: Inhibition of PI3Kdelta (unknown origin) at 30 uM
[8] = molecular target: Mitogen-activated protein kinase 8 (Homo sapiens) (UniProt P45983); test: Inhibition of JNK1 (unknown origin) at 30 uM
[9] = molecular target: Mitogen-activated protein kinase 9 (Homo sapiens) (UniProt P45984); test: Inhibition of JNK2 (unknown origin) at 30 uM
[10] = molecular target: Phosphatidylinositol 4,5-bisphosphate 3-kinase catalytic subunit gamma isoform (Homo sapiens) (UniProt P48736); test: Inhibition of PI3Kgamma (unknown origin) at 30 uM
[11] = molecular target: Phosphatidylinositol 4,5-bisphosphate 3-kinase catalytic subunit beta isoform (Homo sapiens) (UniProt P42338); test: Inhibition of PI3Kbeta (unknown origin) at 30 uM
[12] = molecular target: Phosphatidylinositol 4,5-bisphosphate 3-kinase catalytic subunit alpha isoform (Homo sapiens) (UniProt P42336); test: Inhibition of PI3Kalpha (unknown origin) at 30 uM
[13] = molecular target: RAC-gamma serine/threonine-protein kinase (Homo sapiens) (UniProt Q9Y243); test: Inhibition of AKT3 (unknown origin) at 30 uM
[14] = molecular target: Inhibitor of nuclear factor kappa-B kinase subunit epsilon (Homo sapiens) (UniProt Q14164); test: Inhibition of IKKepsilon (unknown origin) at 30 uM
[15] = molecular target: Inhibitor of nuclear factor kappa-B kinase subunit beta (Homo sapiens) (UniProt O14920); test: Inhibition of IKKbeta (unknown origin) at 30 uM
[16] = molecular target: Mitogen-activated protein kinase 1 (Homo sapiens) (UniProt P28482); test: Inhibition of ERK2 (unknown origin) at 30 uM
[17] = molecular target: MAP kinase-activated protein kinase 5 (Homo sapiens) (UniProt Q8IW41); test: Inhibition of MAPKAPK5 (unknown origin) at 30 uM
[18] = molecular target: MAP kinase-activated protein kinase 3 (Homo sapiens) (UniProt Q16644); test: Inhibition of MAPKAPK3 (unknown origin) at 30 uM
[19] = molecular target: Mitogen-activated protein kinase 13 (Homo sapiens) (UniProt O15264); test: Inhibition of p38delta (unknown origin) at 30 uM
[20] = molecular target: MAP kinase-activated protein kinase 2 (Homo sapiens) (UniProt P49137); test: Inhibition of MAPKAPK2 (unknown origin) at 30 uM
[21] = molecular target: Mitogen-activated protein kinase 12 (Homo sapiens) (UniProt P53778); test: Inhibition of p38gamma (unknown origin) at 30 uM
[22] = molecular target: Mitogen-activated protein kinase 14 (Homo sapiens) (UniProt Q16539); test: Inhibition of p38alpha (unknown origin) at 30 uM
[23] = molecular target: Dual specificity mitogen-activated protein kinase kinase 2 (Homo sapiens) (UniProt P36507); test: Inhibition of MEK2 (unknown origin) at 30 uM
[24] = molecular target: Mitogen-activated protein kinase kinase kinase 8 (Homo sapiens) (UniProt P41279); test: Inhibition of MAP3K8 (unknown origin) at 30 uM
[25] = molecular target: Interleukin-1 receptor-associated kinase 4 (Homo sapiens) (UniProt Q9NWZ3); test: Inhibition of IRAK4 (unknown origin) at 30 uM
[26] = molecular target: Interleukin-1 receptor-associated kinase 1 (Homo sapiens) (UniProt P51617); test: Inhibition of IRAK1 (unknown origin) at 30 uM
Mus musculus [27] = test: Antiinflammatory activity in collagen-induced arthritis mouse model at 30 mg/kg, po qd administered every other day for 20 days relative to vehicle-treated control; type: functional; settings: 480 h
Mus musculus [28] = test: Antiinflammatory activity in mouse assessed as inhibition of LPS-induced IL-6 production at 100 mg/kg, po administered 1 hr prior to LPS challenge measured after 1 hr; type: functional, organism-based; design: dose 100 mg/kg
Mus musculus [29] = test: Antiinflammatory activity in mouse assessed as inhibition of LPS-induced IL-6 production at 10 mg/kg, po administered 1 hr prior to LPS challenge measured after 1 hr; type: functional
Mus musculus [30] = test: Antiinflammatory activity in mouse assessed as inhibition of LPS-induced TNF-alpha production at 10 mg/kg, po administered 1 hr prior to LPS challenge measured after 1 hr; type: functional
[31] = Terminal half life in mouse at 4 mg/kg, po; type: ADME, organism-based; design: dose 4 mg/kg, route oral; settings: in vivo, read-out: beta t1/2 (converted)
[32] = Tmax in mouse at 4 mg/kg, po; type: ADME, organism-based; design: dose 4 mg/kg, route oral; settings: in vivo
[33] = Terminal half life in mouse at 2 mg/kg, iv; type: ADME, organism-based; design: dose 2 mg/kg, route intravenous; settings: in vivo, read-out: beta t1/2 (converted)
[34] = AUC (0 to 24 hrs) in mouse at 2 mg/kg, iv; type: ADME, organism-based; design: time < 24 hr, dose 2 mg/kg, route intravenous; settings: plasma
PBMC [35] = test: Antiinflammatory activity in human PBMC assessed as inhibition of LPS-induced IL-6 release incubated for 15 mins prior to LPS-challenge measured after 24 hrs by HTRF assay; type: functional, cell-based
PBMC [36] = test: Antiinflammatory activity in human PBMC assessed as inhibition of LPS-induced IL-1beta release incubated for 15 mins prior to LPS-challenge measured after 24 hrs by HTRF assay; type: functional, cell-based
PBMC [37] = test: Antiinflammatory activity in human PBMC assessed as inhibition of LPS-induced TNFalpha release incubated for 15 mins prior to LPS-challenge measured after 24 hrs by HTRF assay; type: functional, cell-based
[38] = Volume of distribution at steady state in mouse at 2 mg/kg, iv; type: ADME, organism-based; design: dose 2 mg/kg, route intravenous; settings: in vivo, read-out: Vdss
Mus musculus [39] = test: Antiinflammatory activity in mouse assessed as inhibition of LPS-induced TNF-alpha production at 30 mg/kg, po administered 1 hr prior to LPS challenge measured after 1 hr; type: functional
Mus musculus [40] = test: Antiinflammatory activity in mouse assessed as inhibition of LPS-induced IL-6 production at 30 mg/kg, po administered 1 hr prior to LPS challenge measured after 1 hr; type: functional
Mus musculus [41] = test: Antiinflammatory activity in mouse assessed as inhibition of LPS-induced TNF-alpha production at 100 mg/kg, po administered 1 hr prior to LPS challenge measured after 1 hr; type: functional, organism-based; design: dose 100 mg/kg

Phosphatidylinositol 4,5-bisphosphate 3-kinase catalytic subunit delta isoform (Homo sapiens), sequence (O00329 whole entry, canonical isoform): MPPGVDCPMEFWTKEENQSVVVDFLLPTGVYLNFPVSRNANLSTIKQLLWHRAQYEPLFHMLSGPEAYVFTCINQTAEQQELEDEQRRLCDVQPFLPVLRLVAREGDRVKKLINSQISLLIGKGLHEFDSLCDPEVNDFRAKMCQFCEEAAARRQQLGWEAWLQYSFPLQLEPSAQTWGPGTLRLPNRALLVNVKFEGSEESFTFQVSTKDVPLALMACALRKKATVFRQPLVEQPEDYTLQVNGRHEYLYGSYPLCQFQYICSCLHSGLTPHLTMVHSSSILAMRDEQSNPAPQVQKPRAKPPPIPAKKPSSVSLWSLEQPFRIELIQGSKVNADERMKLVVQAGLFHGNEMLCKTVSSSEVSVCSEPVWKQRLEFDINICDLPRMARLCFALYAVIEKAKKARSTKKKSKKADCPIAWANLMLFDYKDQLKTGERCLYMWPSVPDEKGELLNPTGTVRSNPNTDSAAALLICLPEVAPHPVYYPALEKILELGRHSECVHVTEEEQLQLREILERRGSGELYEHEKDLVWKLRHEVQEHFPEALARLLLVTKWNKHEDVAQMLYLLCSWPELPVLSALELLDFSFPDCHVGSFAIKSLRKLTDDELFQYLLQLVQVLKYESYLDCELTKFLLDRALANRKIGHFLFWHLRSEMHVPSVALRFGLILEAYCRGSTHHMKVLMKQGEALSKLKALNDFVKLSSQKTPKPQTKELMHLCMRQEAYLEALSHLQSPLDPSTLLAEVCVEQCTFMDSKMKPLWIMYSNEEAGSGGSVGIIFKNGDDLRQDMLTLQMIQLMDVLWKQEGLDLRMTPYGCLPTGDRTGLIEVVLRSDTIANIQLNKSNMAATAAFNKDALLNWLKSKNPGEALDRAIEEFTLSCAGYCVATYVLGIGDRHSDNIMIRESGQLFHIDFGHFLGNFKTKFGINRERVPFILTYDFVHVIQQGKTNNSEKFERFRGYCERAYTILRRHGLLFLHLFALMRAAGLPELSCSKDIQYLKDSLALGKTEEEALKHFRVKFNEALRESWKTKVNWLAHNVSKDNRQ
Inhibitor of nuclear factor kappa-B kinase subunit beta (Homo sapiens), sequence (O14920 whole entry): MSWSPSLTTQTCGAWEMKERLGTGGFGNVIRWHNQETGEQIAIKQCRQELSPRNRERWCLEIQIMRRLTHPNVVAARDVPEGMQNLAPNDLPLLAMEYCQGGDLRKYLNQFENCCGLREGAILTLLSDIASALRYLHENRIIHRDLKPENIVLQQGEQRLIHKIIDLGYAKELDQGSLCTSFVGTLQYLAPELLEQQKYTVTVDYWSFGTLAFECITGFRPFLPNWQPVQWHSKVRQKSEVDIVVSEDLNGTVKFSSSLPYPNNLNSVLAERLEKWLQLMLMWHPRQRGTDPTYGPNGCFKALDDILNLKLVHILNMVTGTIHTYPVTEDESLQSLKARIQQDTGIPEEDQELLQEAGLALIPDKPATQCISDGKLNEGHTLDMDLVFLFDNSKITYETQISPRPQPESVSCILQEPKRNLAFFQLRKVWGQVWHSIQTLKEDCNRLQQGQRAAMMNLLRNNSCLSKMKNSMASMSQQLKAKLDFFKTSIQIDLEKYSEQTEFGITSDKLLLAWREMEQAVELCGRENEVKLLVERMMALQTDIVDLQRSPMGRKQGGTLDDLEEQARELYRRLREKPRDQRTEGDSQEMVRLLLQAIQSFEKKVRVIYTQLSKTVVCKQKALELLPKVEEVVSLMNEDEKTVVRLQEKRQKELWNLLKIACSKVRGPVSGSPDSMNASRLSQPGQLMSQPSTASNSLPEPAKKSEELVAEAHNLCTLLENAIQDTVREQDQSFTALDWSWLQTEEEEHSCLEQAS
Phosphatidylinositol 4,5-bisphosphate 3-kinase catalytic subunit alpha isoform (Homo sapiens), sequence (P42336 whole entry, canonical isoform): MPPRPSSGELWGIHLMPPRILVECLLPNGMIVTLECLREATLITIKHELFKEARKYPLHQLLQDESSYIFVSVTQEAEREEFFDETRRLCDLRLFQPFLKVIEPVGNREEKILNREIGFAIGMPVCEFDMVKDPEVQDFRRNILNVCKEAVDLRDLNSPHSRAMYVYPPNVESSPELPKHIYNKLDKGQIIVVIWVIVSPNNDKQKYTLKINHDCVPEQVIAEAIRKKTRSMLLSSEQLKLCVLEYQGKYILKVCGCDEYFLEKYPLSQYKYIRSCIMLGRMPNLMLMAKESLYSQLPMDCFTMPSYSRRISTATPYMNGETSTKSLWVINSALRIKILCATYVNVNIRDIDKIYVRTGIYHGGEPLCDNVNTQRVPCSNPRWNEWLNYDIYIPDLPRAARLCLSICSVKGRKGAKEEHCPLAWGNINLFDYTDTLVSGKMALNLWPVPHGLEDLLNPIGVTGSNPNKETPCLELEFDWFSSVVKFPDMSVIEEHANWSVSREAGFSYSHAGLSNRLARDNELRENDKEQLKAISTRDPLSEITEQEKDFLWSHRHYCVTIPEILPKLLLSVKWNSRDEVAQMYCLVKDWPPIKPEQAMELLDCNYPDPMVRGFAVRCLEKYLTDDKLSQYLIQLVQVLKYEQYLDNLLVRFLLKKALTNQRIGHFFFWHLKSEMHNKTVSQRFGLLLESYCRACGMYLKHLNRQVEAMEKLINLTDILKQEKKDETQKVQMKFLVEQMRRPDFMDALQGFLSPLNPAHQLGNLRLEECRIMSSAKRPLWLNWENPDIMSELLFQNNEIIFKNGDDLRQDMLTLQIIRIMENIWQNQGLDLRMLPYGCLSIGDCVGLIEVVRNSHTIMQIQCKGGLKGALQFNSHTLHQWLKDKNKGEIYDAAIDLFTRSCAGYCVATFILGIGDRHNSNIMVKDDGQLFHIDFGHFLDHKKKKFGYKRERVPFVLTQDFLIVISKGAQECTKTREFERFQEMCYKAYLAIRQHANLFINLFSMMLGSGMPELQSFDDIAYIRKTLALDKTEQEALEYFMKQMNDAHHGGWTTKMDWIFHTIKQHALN
Mitogen-activated protein kinase 9 (Homo sapiens), sequence (P45984 whole entry, looked up, canonical isoform): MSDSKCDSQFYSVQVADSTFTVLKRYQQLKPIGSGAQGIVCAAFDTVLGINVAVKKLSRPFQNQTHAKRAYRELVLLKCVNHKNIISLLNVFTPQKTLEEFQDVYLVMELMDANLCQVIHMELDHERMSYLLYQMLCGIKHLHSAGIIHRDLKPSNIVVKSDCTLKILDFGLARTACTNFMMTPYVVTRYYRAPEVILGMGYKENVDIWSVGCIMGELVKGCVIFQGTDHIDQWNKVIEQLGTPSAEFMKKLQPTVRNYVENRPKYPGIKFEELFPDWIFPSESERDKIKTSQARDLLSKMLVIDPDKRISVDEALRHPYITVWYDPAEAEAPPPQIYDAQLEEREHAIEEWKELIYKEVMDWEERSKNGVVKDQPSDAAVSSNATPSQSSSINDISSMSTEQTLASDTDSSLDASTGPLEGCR
Mitogen-activated protein kinase 1 (Homo sapiens), sequence (P28482 whole entry): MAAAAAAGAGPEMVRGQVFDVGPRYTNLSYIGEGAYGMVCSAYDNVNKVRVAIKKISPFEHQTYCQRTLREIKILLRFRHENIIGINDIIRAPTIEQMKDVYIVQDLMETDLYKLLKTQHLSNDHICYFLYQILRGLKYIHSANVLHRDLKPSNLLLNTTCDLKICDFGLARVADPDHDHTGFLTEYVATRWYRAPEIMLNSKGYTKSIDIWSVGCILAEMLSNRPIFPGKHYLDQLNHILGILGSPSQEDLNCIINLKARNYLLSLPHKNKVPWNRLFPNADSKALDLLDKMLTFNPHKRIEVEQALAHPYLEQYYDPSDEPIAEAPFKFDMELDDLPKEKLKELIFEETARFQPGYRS
Mitogen-activated protein kinase 8 (Homo sapiens), sequence (P45983 whole entry): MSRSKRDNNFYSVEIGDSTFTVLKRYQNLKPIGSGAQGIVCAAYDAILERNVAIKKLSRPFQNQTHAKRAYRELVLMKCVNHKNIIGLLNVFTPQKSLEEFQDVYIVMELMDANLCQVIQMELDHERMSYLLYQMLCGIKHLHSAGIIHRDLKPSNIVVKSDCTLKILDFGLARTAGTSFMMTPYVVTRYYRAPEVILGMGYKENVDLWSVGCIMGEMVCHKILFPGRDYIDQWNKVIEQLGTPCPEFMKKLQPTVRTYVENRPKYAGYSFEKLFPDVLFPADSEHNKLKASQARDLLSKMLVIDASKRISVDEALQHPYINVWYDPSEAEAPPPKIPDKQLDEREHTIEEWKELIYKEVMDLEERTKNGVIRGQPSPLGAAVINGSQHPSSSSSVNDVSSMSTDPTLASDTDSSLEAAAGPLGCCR
Dual specificity mitogen-activated protein kinase kinase 2 (Homo sapiens), sequence (P36507 whole entry): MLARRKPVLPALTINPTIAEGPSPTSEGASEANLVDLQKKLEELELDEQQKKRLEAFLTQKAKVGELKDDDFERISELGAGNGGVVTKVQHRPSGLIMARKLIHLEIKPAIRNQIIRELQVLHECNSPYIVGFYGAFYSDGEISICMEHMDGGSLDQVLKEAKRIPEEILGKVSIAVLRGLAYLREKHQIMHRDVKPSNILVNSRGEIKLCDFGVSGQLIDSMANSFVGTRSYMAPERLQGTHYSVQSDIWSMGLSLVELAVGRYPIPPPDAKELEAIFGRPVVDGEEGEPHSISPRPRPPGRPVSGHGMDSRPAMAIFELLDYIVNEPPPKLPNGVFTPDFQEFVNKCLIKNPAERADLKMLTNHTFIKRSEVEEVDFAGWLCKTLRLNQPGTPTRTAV
MAP kinase-activated protein kinase 2 (Homo sapiens), sequence (P49137 whole entry, looked up): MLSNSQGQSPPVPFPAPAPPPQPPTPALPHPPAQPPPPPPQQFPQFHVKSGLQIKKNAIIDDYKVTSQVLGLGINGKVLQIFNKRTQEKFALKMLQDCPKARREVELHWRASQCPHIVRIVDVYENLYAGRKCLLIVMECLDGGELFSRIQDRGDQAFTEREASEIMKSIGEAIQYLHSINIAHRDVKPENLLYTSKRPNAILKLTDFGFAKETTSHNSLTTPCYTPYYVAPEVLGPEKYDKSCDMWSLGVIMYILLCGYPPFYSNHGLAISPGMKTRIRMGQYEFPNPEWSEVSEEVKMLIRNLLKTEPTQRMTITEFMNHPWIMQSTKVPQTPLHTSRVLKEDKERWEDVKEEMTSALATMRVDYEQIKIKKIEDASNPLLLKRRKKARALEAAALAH

inhibition [1]: inactive
inhibition (Homo sapiens): inactive
inhibition [2]: inactive
inhibition [3]: inactive
inhibition [4]: inactive
inhibition [5]: inactive
inhibition [6]: inactive
inhibition [7]: inactive
inhibition [8]: inactive
inhibition [9]: inactive
inhibition [10]: inactive
inhibition [11]: inactive
inhibition [12]: inactive
inhibition [13]: inactive
inhibition [14]: inactive
inhibition [15]: inactive
inhibition [16]: inactive
inhibition [17]: inactive
inhibition [18]: inactive
inhibition [19]: inactive
inhibition [20]: inactive
inhibition [21]: inactive
inhibition [22]: inactive
inhibition [23]: inactive
inhibition [24]: inactive
inhibition [25]: inactive
inhibition [26]: inactive
half-life [31]: 13.3 h
Tmax [32]: 4 h
half-life [33]: 7.85 h
AUC(0-t) at 24 h [34]: 43400 ng·h/mL
Vd [38]: 0.41 L/kg
Compound: O=C(Nc1ccc2c(c1)B(O)OC2)c1c(C(F)(F)F)ccc(Cl)c1F
inhibition in vivo at 30 mg/kg (Mus musculus [27]): 68%
inhibition (Mus musculus [28]): Active
inhibition in vivo at 10 mg/kg (Mus musculus [29]): 75%
inhibition in vivo at 10 mg/kg (Mus musculus [30]): 60%
IC50 (PBMC [35]): 320 nM
IC50 (PBMC [36]): 190 nM
IC50 (PBMC [37]): 500 nM
inhibition in vivo at 30 mg/kg (Mus musculus [39]): 80%
inhibition in vivo at 30 mg/kg (Mus musculus [40]): 95%
inhibition (Mus musculus [41]): Active
